Laboratory results as given in patent EP4759810A1, “PROTAC TARGETING BCL-XL PROTEIN AND USE THEREOF” (BEIJING SUNCELL BIO-MEDICAL CO., LTD., priority 2023, dated 2025).
Read-outs that look alike come from different tables or passages of the source.

Experiments:
Molt-4 cells [1] = experiment: Molt-4 cell killing activity test (CCK-8); assay type: cell-based; conditions: for EC50: Homo sapiens; for killing Molt-4 cells at different concentrations (Figure 1), in words: 0.001-3 µM, comparison with control molecules
Description: (§1) Molt-4 cells were cultured and amplified in 10 cm dishes by using RPMI-1640 medium supplemented with 10% fetal bovine serum. Actively growing and healthy Molt-4 cells were collected, centrifuged at 1000 rpm for 5 minutes, and after removing the supernatant, the cells were resuspended in fresh RPMI-1640 medium containing 10% fetal bovine serum. Cell counting was then performed. The cell density was adjusted to 120,000 cells per milliliter, and 100 µL of the cell suspension was added to each well of a 96-well transparent cell culture plate. It was noted that the edge wells of the 96-well plate were not used for testing; and 300 µL of PBS alone was added to these wells to reduce medium evaporation.
The small molecule compounds to be tested for activity were prepared. A series of small molecule concentration gradients (0.001, 0.003, 0.01, 0.03, 0.1, 0.3, 1, and 3 µM) were pre-set, and a series of 2× drug dilutions for the above concentrations were prepared in RPMI-1640 medium containing 10% fetal bovine serum. 100 µL of the above medium containing the gradient concentrations of the drug was added to each well of a 96-well plate pre-seeded with cells, so that the final drug concentration in each well was the pre-set concentration gradient. Three replicate wells were used for each tested drug concentration. The 96-well plate was placed back in a 37°C incubator, and the cell viability was measured after three days.
The plate was taken out three days after adding the drugs, and 100 µL of pre-prepared CCK-8 working solution was added to each well. The CCK-8 working solution was obtained through diluting a CCK-8 stock solution (C0041, Beyotime) by 10-fold volumn with a serum-free RPMI-1640 medium. The 96-well plates with the added CCK-8 working solution were placed back in the 37°C incubator and incubated for 0.5-2 hours. The plates were then taken out, and the absorbance value (OD value) of each well was measured at a wavelength of 450 nm, and the cell viability in each experimental group was calculated according to the following formula: Relative cell viability (%) = […] × 100%.

Bcl-xL protein = molecular target: T1, Bcl-xL protein (Homo sapiens, UniProt Q07817); experiment: Degradation experiment of Bcl-xL target protein (Western blot in Molt-4 cells); assay type: cell-based; conditions: 100 nM, 0, 2, 6, 16 h, GAPDH internal control, Figure 4
T1 construct: host or cells: Molt-4 cells
T1 sequence (Q07817 whole entry): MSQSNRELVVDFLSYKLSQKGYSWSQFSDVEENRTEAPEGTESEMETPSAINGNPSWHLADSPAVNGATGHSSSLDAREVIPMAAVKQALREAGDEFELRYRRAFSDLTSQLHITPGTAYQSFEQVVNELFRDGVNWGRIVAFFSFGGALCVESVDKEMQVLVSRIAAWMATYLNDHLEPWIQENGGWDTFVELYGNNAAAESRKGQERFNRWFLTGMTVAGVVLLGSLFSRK
Description: Actively growing and healthy Molt-4 cells were subcultured into a fresh RPMI-1640 medium containing 10% fetal bovine serum, and each PROTAC molecule was added thereto at a final concentration of 100 nM. After drug treatment for the specified times (0, 2, 6, and 16 hours), the cells were collected, the supernatant was discarded by centrifugation, and the cells were washed twice with pre-cooled PBS buffer. Total protein was extracted with a lysis buffer (Servicebio, G2002-100ML), and the protein concentration was normalized by using a BCA protein quantification kit (Servicebio, G2026). Protein samples were mixed with a protein-loading buffer and incubated at 95°C for 5 minutes. Western blotting experiments were performed by using the following antibodies: Bcl-xL (Abcam, catalog number ab32370), diluted at 1:500; GAPDH antibody (Servicebio, catalog number GB15004), diluted at 1:1000; and horseradish peroxidase-conjugated goat anti-rabbit secondary antibody (Servicebio, catalog number GB23303), diluted at 1:5000.

Molt-4 cells [2] = experiment: Detection of E3 enzyme-dependence: Molt-4 cell killing with or without pomalidomide (CCK-8); assay type: cell-based; conditions: 10 µM pomalidomide, Figure 2
Description: as §1, with “Actively” for “Molt-4 cells were cultured and amplified in 10 cm dishes by using RPMI-1640 medium supplemented with 10% fetal bovine serum. Actively”, “testing,” for “testing;”
Molt-4 cells were plated in duplicate according to the number of the tested small molecules, so as to test the effects with and without the addition of pomalidomide (a competitive ligand specific for E3 ligase), in which one half of the parallel cells was added 10 µM pomalidomide. A series of small molecule concentration gradients (0.001, 0.003, 0.01, 0.03, 0.1, 0.3, 1, and 3 µM) were pre-set, and a series of 2× drug dilutions for the above concentrated were prepared in DMEM medium containing 10% fetal bovine serum. 100 µL of the above DMEM medium containing the gradient concentrations of the drug was added to 96-well plates that have been pre-plated with cells, so that the final drug concentration in each well was the pre-set series of concentrations respectively. Three replicate wells were used for each test drug concentration. The 96-well plates were placed back in a 37°C incubator, and the cell viability was detected after three days.
Cell viability after drug treatment was detected by using the CCK-8 method: three days after adding the drugs, the plates were taken out, and the supernatant was discarded. Then, 100 µL of pre-prepared CCK-8 working solution was added to each well. The CCK-8 working solution was obtained through diluting a CCK-8 stock solution (C0041, Beyotime) by 10-fold volumn with a serum-free DMEM culture medium. The 96-well plates with the added CCK-8 working solution were placed back in the 37°C incubator and incubated for 0.5-2 hours. The plates were then taken out, and the absorbance value (OD value) of each well was measured at a wavelength of 450 nm. The cell viability in each experimental group was calculated according to the following formula: Relative cell viability (%) = (Blank control group - Experimental group) / Blank control group × 100%.

HEF cells = experiment: Senescent cell killing activity test, HEF cell model (CCK-8); assay type: cell-based, human
Description: To avoid replication of the induced senescent cells, low-passage proliferating HEF cells (<10 passages), MRC5 cells (<6 passages), and BJ cells (<10 passages) were used as normal controls. For chemical drug induced senescence, HEF cells were treated with 10 µM etoposide (Selleck, S1225) for 36-48 hours, MRC5 cells were treated with 5 µM bleomycin (Selleck, S1225) for 72 hours, and BJ cells were treated with 10 µg/mL bleomycin for 72 hours. Three days after the treatment, the cells were subcultured in fresh culture medium at a 1:3 ratio for 72 hours before further analysis and use.
Non-senescent and induced-senescent HEF cells, non-senescent and induced-senescent MRC5 cells, and non-senescent and induced-senescent BJ cells were respectively digested with trypsin, and centrifuged at 1000 rpm for 5 minutes. Then, the supernatant was removed, and the cells were resuspended in fresh DMEM culture medium containing 10% fetal bovine serum for counting. The cell density was adjusted so that the non-senescent cell density was 4000 cells/100 µL and the senescent cell density was 7000 cells/100 µL. 100 µL of the cell suspension was added to each well of a 96-well transparent cell culture plate. It was noted that the edge wells of the 96-well plate were not used as testing wells, and 300 µL of PBS alone was added to these wells to reduce evaporation of the culture medium. The 96-well plates with the well-plated cells were placed back in a 37°C incubator for overnight culture until the cells adhered. On the next day, the small molecule compounds to be tested were prepared and added after the cells had adhered.
A series of small molecule concentration gradients (0.01, 0.03, 0.1, 0.3, 1, 3, 10, and 25 µM) were pre-set, and a series of 2× drug dilutions for the above concentrations were prepared in DMEM culture medium containing 10% fetal bovine serum. 100 µL of the above DMEM culture medium containing the gradient concentrations of the drug was added to each well of the 96-well plate that had been well-plated with cells, so that the final drug concentration in each well was the pre-set series of concentrations. Three replicate wells were used for each test drug concentration. The 96-well plates were placed back in a 37°C incubator, and cell viability was measured after three days.
Three days after adding the drug, the plates were taken out, and the supernatant was discarded. 100 µL of pre-prepared CCK-8 working solution was added to each well. The CCK-8 working solution was obtained through diluting a CCK-8 stock solution (C0041, Beyotime) with a serum-free DMEM culture medium by 10-fold volumn. The 96-well plates containing the CCK-8 working solution were placed back in the 37°C incubator and incubated for 0.5-2 hours. The plates were then taken out, and the absorbance value (OD value) of each well was measured at a wavelength of 450 nm. The cell viability in each experimental group was calculated according to the following formula: Relative cell viability (%) = (Blank control group - Experimental group) / Blank control group × 100%.

[3] = 72 h, Molt-4 cells, three days, CCK-8, read-out: EC50 (Molt-4)
[4] = Bcl-xL-positive Molt-4 cells, read-out: cellular activity / killing activity (Molt-4 cells)

| SMILES | EC50 (Molt-4 cells [1]; [3]) | degradation of the Bcl-xL protein (Bcl-xL protein) | EC50 (Molt-4 cells [1]; [4]) | killing Molt-4 cells at different concentrations (Figure 1), in words (Molt-4 cells [1]) | cell killing activity after addition of pomalidomide (+poma) compared to without (-poma) (Molt-4 cells [2]) | killing senescent HEF cells (HEF cells; etoposide-induced senescent vs normal HEF cells, Figures 3A-3F) | toxicity on normal non-senescent HEF cells (HEF cells; higher concentration (25 µM)) |
| --- | --- | --- | --- | --- | --- | --- | --- |
| Cc1cc([C@H](C(=O)N2C[C@H](O)C[C@H]2C(=O)N[C@@H](CC(=O)N2CCC(CN3CCN(CC#Cc4ccc(OCCCc5ccc(N6CCc7cccc(C(=O)Nc8nc9ccccc9s8)c7C6)nc5C(=O)O)c(F)c4)CC3)CC2)c2ccc(-c3scnc3C)cc2)C(C)C)on1 [APH7] | 10 to 100 nM | had the ability to degrade the Bcl-xL protein | – | – | – | – | – |
| Cc1cc([C@H](C(=O)N2C[C@H](O)C[C@H]2C(=O)N[C@@H](CC(=O)N2CCC(CCN3CCN(CC#Cc4ccc(OCCCc5ccc(N6CCc7cccc(C(=O)Nc8nc9ccccc9s8)c7C6)nc5C(=O)O)c(F)c4)CC3)CC2)c2ccc(Cl)cc2)C(C)C)on1 [APH105] | < 10 nM | had the ability to degrade the Bcl-xL protein | < 10 nM | – | – | – | – |
| CC(C)(C)[C@H](NC(=O)C1(F)CC1)C(=O)N1C[C@H](O)C[C@H]1C(=O)N[C@@H](CC(=O)N1CCC(CCN2CCN(CC#Cc3ccc(OCCCc4ccc(N5CCc6cccc(C(=O)Nc7nc8ccccc8s7)c6C5)nc4C(=O)O)c(F)c3)CC2)CC1)c1ccc(Cl)cc1 [APH106] | 10 to 100 nM | had the ability to degrade the Bcl-xL protein | – | – | – | – | – |
| CS(=O)(=O)NC(=O)c1nc(N2CCc3cccc(C(=O)Nc4nc5ccccc5s4)c3C2)ccc1CCCOc1ccc(C#CCN2CCN(CC3CCN(c4ccc(N5CCC(=O)NC5=O)cc4)CC3)CC2)cc1F [APQ10-2] | < 10 nM | had the ability to degrade the Bcl-xL protein | < 10 nM | comparable to A-1331852 | significantly reduced cell killing activity | – | – |
| O=C1CCN(c2cc(F)c(N3CCN(CC#Cc4ccc(OCCCc5ccc(N6CCc7cccc(C(=O)Nc8nc9ccccc9s8)c7C6)nc5C(=O)O)c(F)c4)CC3)cc2F)C(=O)N1 [APQ904] | < 10 nM | had the ability to degrade the Bcl-xL protein | < 10 nM | comparable to A-1331852 | significantly reduced cell killing activity | – | – |
| O=C1CCC(N2C(=O)c3cccc(NCCOCCOCCOCCOCCN4CCN(CC#Cc5ccc(OCCCc6ccc(N7CCc8cccc(C(=O)Nc9nc%10ccccc%10s9)c8C7)nc6C(=O)O)c(F)c5)CC4)c3C2=O)C(=O)N1 (stereo not shown) [BF4] | 10 to 100 nM | had the ability to degrade the Bcl-xL protein | – | – | significantly reduced cell killing activity | efficiently and selectively kill senescent HEF cells | no toxicity on normal non-senescent HEF cells |
